Results: patent US20170216235A1, “ADMINISTRATION OF ADAPALENE AND BENZOYL PEROXIDE FOR THE LONG-TERM TREATMENT OF ACNE VULGARIS” (GALDERMA RESEARCH & DEVELOPMENT, priority 2007, published 2017)
Like-named read-outs stand apart in the source and are kept apart here.

Experiments:
[1] = 40° C., cited from earlier work
[2] = Retinoid degradation in the presence of BPO; assay type: physicochemical
Description: Another technical problem to be solved for the formulation of a composition comprising both adapalene and BPO is the chemical and physical compatibility of these compounds within the same formulation provided that common retinoids are natural oxidization sensitive, visible light and ultra violet sensitive and BPO being a strong oxidizing agent.
Indeed, BPO triggers rapidly degradation of natural oxidization sensitive retinoids: 50% of tretinoine is degraded within 2 hours and 95% is degraded within 24 hours.

O=C(OOC(=O)c1ccccc1)c1ccccc1 [BPO, benzoyl peroxide]
BPO degradation time ([1]; in PEG 400 (0.5 mg/g)): 14 days | BPO degradation time ([1]; in ethanol): 29 days | BPO degradation time ([1]; in propylene glycol): 53 days

COc1ccc(-c2ccc3cc(C(=O)O)ccc3c2)cc1C12CC3CC(CC(C3)C1)C2 [adapalene, 6-[3-(1-adamantyl)-4-methoxyphenyl]-2-naphthoic acid]
adapalene degradation in the composition with BPO ([2]; within 24 hours): no adapalene degradation

CC1=C(/C=C/C(C)=C/C=C/C(C)=C/C(=O)O)C(C)(C)CCC1 [tretinoine]
retinoid degraded in the presence of BPO ([2]; within 2 hours): 50% | retinoid degraded in the presence of BPO ([2]; within 24 hours): 95%
